# Source: US12630565B2, “DNA-dependent protein kinase inhibitor” (DIZAL (JIANGSU) PHARMACEUTICAL CO., LTD., priority 2019, dated 2026)
# Legend:
# [1] = molecular target: Full length human DNAPK protein (Homo sapiens, UniProt P78527); experiment: DNA-PK enzymatic assay (TR-FRET); assay type: biochemical; settings: 10 μM ATP, 1.6 μM peptide substrate
# Rat hepatocyte = experiment: Metabolic stability assay (rat hepatocyte Clint); assay type: in vitro ADME; settings: 1 μM compound, cryopreserved hepatocytes 1 million cells per mL
# In short: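 Compound at 1 μM incubated with cryopreserved rat hepatocytes, 1 million cells/mL, sampled 0–120 min with acetonitrile quench and LC-MS/MS quantitation. CLint (μL/min/E6) derived from elimination rate constant and half-life of parent disappearance, scaled by cell concentration.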
# [2] = Metabolic stability assay (human microsomal Clint); assay type: in vitro ADME; settings: 1 mg/mL microsomes, 1 mM NADPH, 37° C.; for Human liver microsomal CLint: 1 μM compound; for microsomal CLint at 1 μM: human, pooled human liver microsomes, pH 7.4, 1 μM compound
# In short: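 Compound (1 μM) incubated at 37 °C with pooled human liver microsomes (1 mg/mL) and 1 mM NADPH in 100 mM phosphate, pH 7.4. Samples quenched in acetonitrile at 0–30 min and analysed by LC-MS/MS for parent loss. CLint reported in μl/min/mg.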
# [3] = test system: MDCKII-MDR1-BCRP cell monolayers; experiment: MDCKII-MDR1-BCRP efflux assay; assay type: in vitro ADME; settings: 5 μM compound, 120 min, HBSS pH 7.4
# In short: (§1)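 Bidirectional (A-B, B-A) transport of 5 μM compound across MDCKII-MDR1-BCRP monolayers in HBSS, 25 mM HEPES pH 7.4, ~37° C. for 120 min, triplicate; donor and receiver concentrations measured, monolayer integrity checked with Lucifer yellow. Papp and efflux ratio calculated.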
# MDR1, BCRP = experiment: MDCKII-MDR1-BCRP efflux assay; assay type: in vitro ADME; settings: dog, pH 7.4, 5 μM compound, HBSS pH 7.4, read-out: MDCK-Mdr1-BCRP efflux ratio
# In short: as §1
SMILES,IC50 [1] [nM],Rat hepatocyte CLint (μl/min/10^−6 cells) (Rat hepatocyte),Human liver microsomal CLint [2] [µL/min/mg],MDCK-Mdr1-BCRP efflux ratio [3],microsomal CLint at 1 μM [2] [µL/min/mg],"efflux ratio at 120 min, 5 μM (MDR1, BCRP)"
"Cc1cc2ncnn2cc1Nc1ncc2c(C)nn(C3CCOC(C)C3)c2n1 (single isomer, unassigned) [Example 36, 3-methyl-N-(7-methyl-[1,2,4]triazolo[1,5-a]pyridin-6-yl)-1-(2-methyltetrahydro-2H-pyran-4-yl)-1H-pyrazolo[3,4-d]pyrimidin-6-amine]",1.4,11.6,51.5,2.1,–,–
"COC1CCC(n2nc(C)c3cnc(Nc4cn5ncnc5cc4C)nc32)C1 (single isomer, unassigned) [Example 109, 1-(3-methoxycyclopentyl)-3-methyl-N-(7-methyl-[1,2,4]triazolo[1,5-a]pyridin-6-yl)-1H-pyrazolo[3,4-d]pyrimidin-6-amine]",4,11.9,87.2,2,–,–
"Cc1cc2ncnn2cc1Nc1ncc2c(C)nn(C3CCCOC3)c2n1 (single isomer, unassigned) [Example 30, 3-methyl-N-(7-methyl-[1,2,4]triazolo[1,5-a]pyridin-6-yl)-1-(tetrahydro-2H-pyran-3-yl)-1H-pyrazolo[3,4-d]pyrimidin-6-amine]",15.7,4.5,17.7,1.2,–,–
"[2H]C([2H])([2H])n1nc(C2CCOCC2)c2nc(Nc3cn4ncnc4cc3C)ncc21 [Example 10, 1-(methyl-d3)-N-(7-methyl-[1,2,4]triazolo[1,5-a]pyridin-6-yl)-3-(tetrahydro-2H-pyran-4-yl)-1H-pyrazolo[4,3-d]pyrimidin-5-amine]",1.7,6.8,–,–,17.2,7.2
"Cc1cc2nccn2cc1Nc1ncc2c(C)nn(C(C)C)c2n1 [Example 60, 1-isopropyl-3-methyl-N-(7-methylimidazo[1,2-a]pyridin-6-yl)-1H-pyrazolo[3,4-d]pyrimidin-6-amine]",13.5,22.7,–,–,20.4,0.7
"CO[C@H]1CC[C@@H](n2nc(C)c3cnc(Nc4cn5ncnc5cc4C)nc32)CC1 [Example 25, 1-((1s,4s)-4-methoxycyclohexyl)-3-methyl-N-(7-methyl-[1,2,4]triazolo[1,5-a]pyridin-6-yl)-1H-pyrazolo[3,4-d]pyrimidin-6-amine]",1.8,17.7,–,–,209,1.3
"Cc1cc(-c2nn(C)c3cnc(Nc4cn5ncnc5cc4C)nc23)ccn1 [Example 102, 1-methyl-N-(7-methyl-[1,2,4]triazolo[1,5-a]pyridin-6-yl)-3-(2-methylpyridin-4-yl)-1H-pyrazolo[4,3-d]pyrimidin-5-amine]",0.9,32.0,–,–,15,14
"Cc1cc2ncnn2cc1Nc1ncc2c(C)nn(CC(F)F)c2n1 [Example 57, 1-(2,2-difluoroethyl)-3-methyl-N-(7-methyl-[1,2,4]triazolo[1,5-a]pyridin-6-yl)-1H-pyrazolo[3,4-d]pyrimidin-6-amine]",12.2,4.2,–,–,20.9,1.6
"Cc1cc2ncnn2cc1Nc1ncc2c(C)nn(CCCOC(F)(F)F)c2n1 [Example 66, 3-methyl-N-(7-methyl-[1,2,4]triazolo[1,5-a]pyridin-6-yl)-1-(3-(trifluoromethoxy)propyl)-1H-pyrazolo[3,4-d]pyrimidin-6-amine]",2,15.3,–,–,120,1.9
"Cc1cc2nccn2cc1Nc1ncc2c(n1)c(C1=CCOCC1)nn2C [Example 6, 3-(3,6-dihydro-2H-pyran-4-yl)-1-methyl-N-(7-methylimidazo[1,2-a]pyridin-6-yl)-1H-pyrazolo[4,3-d]pyrimidin-5-amine]",1.6,6.8,–,–,35.5,4.9
"Cc1cc2ncnn2cc1Nc1ncc2c(C)nn(C3CCN(C)CC3)c2n1 [Example 19, 3-methyl-N-(7-methyl-[1,2,4]triazolo[1,5-a]pyridin-6-yl)-1-(1-methylpiperidin-4-yl)-1H-pyrazolo[3,4-d]pyrimidin-6-amine]",25.9,6.8,–,–,4.3,13.1
"Cc1cc2ncnn2cc1Nc1ncc2c(C)nn(C3CCC4(CC3)CC4)c2n1 [Example 37, 3-methyl-N-(7-methyl-[1,2,4]triazolo[1,5-a]pyridin-6-yl)-1-(spiro[2.5]octan-6-yl)-1H-pyrazolo[3,4-d]pyrimidin-6-amine]",0.9,71.1,–,–,200,0.6
"Cc1cc2ncnn2cc1Nc1ncc2c(C)nn(C3CCCCC3)c2n1 [Example 20, 1-cyclohexyl-3-methyl-N-(7-methyl-[1,2,4]triazolo[1,5-a]pyridin-6-yl)-1H-pyrazolo[3,4-d]pyrimidin-6-amine]",1.3,52.0,–,–,117,0.8
"COC1CCC(n2nc(C)c3cnc(Nc4cn5ncnc5cc4C)nc32)C1 (single isomer, unassigned) [Example 108, 1-(3-methoxycyclopentyl)-3-methyl-N-(7-methyl-[1,2,4]triazolo[1,5-a]pyridin-6-yl)-1H-pyrazolo[3,4-d]pyrimidin-6-amine]",1.9,17.2,–,–,89,2
"Cc1cc2ncnn2cc1Nc1ncc2c(n1)c([C@H]1CC[C@@H](OC(F)F)CC1)nn2C [Example 11, 3-((1s,4s)-4-(difluoromethoxy)cyclohexyl)-1-methyl-N-(7-methyl-[1,2,4]triazolo[1,5-a]pyridin-6-yl)-1H-pyrazolo[4,3-d]pyrimidin-5-amine]",0.7,190.4,–,–,> 300,1.8
"Cc1cc2ncnn2cc1Nc1ncc2c(C)nn([C@H]3C[C@@H](C)C3)c2n1 [Example 40, 3-methyl-N-(7-methyl-[1,2,4]triazolo[1,5-a]pyridin-6-yl)-1-((1s,3s)-3-methylcyclobutyl)-1H-pyrazolo[3,4-d]pyrimidin-6-amine]",4.2,144.4,–,–,125,0.9
"Cc1cc2ncnn2cc1Nc1ncc2c(C)nn([C@H]3CC[C@@H](O)CC3)c2n1 [Example 32, (1s,4s)-4-(3-methyl-6-((7-methyl-[1,2,4]triazolo[1,5-a]pyridin-6-yl)amino)-1H-pyrazolo[3,4-d]pyrimidin-1-yl)cyclohexan-1-ol]",1.9,11.5,–,–,9.1,9.4
